Series [1] in a line: Shake-flask logD7.4 n-octanol/PBS. The series is classed as physicochemical. Conditions: n-octanol/PBS pH 7.4, shake-flask, room temperature. The method, then:
A PBS (pH 7.4) solution was saturated with n-octanol, and n-octanol was saturated with PBS (pH 7.4) by vigorous shaking, followed by equilibration for at least 24 h to ensure complete phase separation. The reference compound 4-chloro-6,7-bis(2-methoxyethoxy)quinazoline and analogs 1–7 were dissolved in the octanol phase (previously saturated with PBS), and equal volumes of the aqueous phase (previously saturated with octanol) were added. Final assay solutions were prepared at 10 μM by diluting 2 μL of a 5 mM stock solution into 1 mL of total volume. The biphasic mixtures were shaken for 24 h at room temperature. After equilibration, both the octanolic and aqueous phases were analyzed by UV–visible spectrophotometry using a Shimadzu UV-1603. […] LogD7.4 values were calculated as […]. Each determination was performed in triplicate. Regression analyses and curve fittings were performed using GraphPad Prism 8.0 software (GraphPad Software Inc., LaJolla, CA, USA).

In another series the test system is F98. Further details: method as in earlier work. Conditions: F98 rat glioma cells; errors omitted; ref 19 (compounds 8 and 9: ref 13); cited from earlier work.
A further series has as its system C6. More on the design: method as in earlier work. The conditions noted are these: C6 glioma cells; errors omitted; ref 19 (compounds 8 and 9: ref 13); cited from earlier work.
The test system of the next series is U87 MG. Further details: method as in earlier work. Conditions: human U87 MG glioma cells; errors omitted; ref 19 (compounds 8 and 9: ref 13); cited from earlier work.
For series [2], the system named is Mix of primary glial cell culture. Further details: method as in earlier work. The conditions noted are these: mix of primary glial cell culture (healthy cells); errors omitted; ref 19 (compounds 8 and 9: ref 13); cited from earlier work.

pIC50: −log10 of the molar value. A value given as a limit tells only on which side of the number the result lay.

In series [1], `COCCOc1cc2ncnc(Cl)c2cc1OCCOC` [4-chloro-6,7-bis(2-methoxyethoxy)quinazoline] had a logD at 24 h of 1.02.
As to `C#Cc1cccc(Nc2ncnc3cc(OCCOC)c(OCCOC)cc23)c1` [Erl, erlotinib], the pIC50 is less than 4.00 in the series with F98, less than 4.00 in the series on C6, 4.20 with U87 MG and less than 4.00 in series [2].

Source of the values: PMC12655621 (Pharmaceuticals, 2025).
